Data: publication PMC10060569 (Frontiers in Pharmacology, 2023)

Biological target: T1, hP2X7R (Homo sapiens, UniProt Q99572)
T1 construct: expressed in transfected cells; host or cells: Xenopus laevis oocytes (cRNA injection)
T1 sequence (Q99572 1-595): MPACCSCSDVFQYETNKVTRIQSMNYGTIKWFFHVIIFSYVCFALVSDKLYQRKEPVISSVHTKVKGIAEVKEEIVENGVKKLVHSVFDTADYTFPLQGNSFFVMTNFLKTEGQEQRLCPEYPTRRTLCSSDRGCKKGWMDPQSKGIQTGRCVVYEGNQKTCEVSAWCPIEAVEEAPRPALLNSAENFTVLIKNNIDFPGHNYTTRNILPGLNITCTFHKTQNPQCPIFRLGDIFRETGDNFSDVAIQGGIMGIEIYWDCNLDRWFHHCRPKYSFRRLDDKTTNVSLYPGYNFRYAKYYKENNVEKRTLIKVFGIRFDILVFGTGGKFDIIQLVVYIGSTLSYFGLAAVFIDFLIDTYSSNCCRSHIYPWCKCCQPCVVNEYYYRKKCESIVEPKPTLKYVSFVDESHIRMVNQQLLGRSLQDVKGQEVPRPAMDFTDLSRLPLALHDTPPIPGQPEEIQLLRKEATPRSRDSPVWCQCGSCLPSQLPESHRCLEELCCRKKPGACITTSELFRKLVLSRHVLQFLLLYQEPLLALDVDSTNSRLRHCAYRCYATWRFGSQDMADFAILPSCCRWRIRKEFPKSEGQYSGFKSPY
Experiment: TEVC of ATP4--induced currents, hP2X7R in X. laevis oocytes (modified steady-state protocol)
Assay type: cell-based
Details: for IC50: estimated from few tested concentrations
Description: Ion currents mediated by P2X receptors were evoked by the indicated concentration of ATP or α,β-meATP and were recorded 1 or 2 days after cRNA injection at ambient temperature at a holding potential of −60 mV by two-electrode voltage clamp (TEVC) as previously described ([Hausmann et al., 2006]). Calcium-free ORi^− solution (90 mM NaCl, 1 mM KCl, 2 mM MgCl2, 10 mM HEPES, pH 7.4) was used to avoid bias due to calcium-activated chloride channels (CaCC) endogenously expressed in X. laevis oocytes ([Miledi, 1982]; [Methfessel et al., 1986]). For recordings of wt-hP2X7R, the composition of the ORi^− solution was modified according to protocols described previously and contained 100 mM NaCl, 2.5 mM KCl, 1 mM MgCl2, 5 mM HEPES, pH 7.4 ([Klapperstück et al., 2000]). The oocytes were continuously superfused with ORi^− by gravity flow (5–10 ml/min). The agonists ATP or α,β-meATP and the investigated NSAIDs were diluted in ORi^− on the day of the recording. The following agonist concentrations were used for the different P2X subtypes: 1 μM ATP (hP2X1R mutant, hP2X3R, rP2X3R, S^15V-hP2X3R, and S^15V-rP2X3R); 10 μM ATP (hP2X2R and hP2X4R); 300 μM free ATP^4- (hP2X7R); and 1 μM α,β-meATP (hP2X2/3R). A peak current protocol (Supplementary Figure S1) was used to analyze fast- and intermediate desensitizing P2XR subtypes (P2X1R, P2X3R, and S^15V-P2X3R), and a steady-state protocol (Supplementary Figure S2) was used for slowly or partially desensitizing P2X subtypes (P2X2R, P2X2/3R, and P2X4R). For recordings of P2X7R, a modified steady-state protocol was used ([Hausmann et al., 2006]). The application of different bath solutions was controlled by computer-operated magnetic valves controlled by the CellWorks E 5.5.1 software (npi electronic, Tamm, Germany).
In the case of hP2X7R, the control current in the absence of the antagonist had to be extrapolated (Supplementary Figure S4 and Supplementary Figure S5) presuming a linear increase in permeability during continuous ATP application ([North, 2002]) since the permeability of the receptor is affected by the antagonist.
For recordings of P2X7R, most scientists use divalent-free solutions such as ORi supplemented with 100 µM flufenamic acid (FFA) as an unselective ion channel blocker to inhibit non-specific chloride conductance in the absence of divalent ions ([Weber et al., 1995]; [Hülsmann et al., 2003]). However, since FFA is one of the investigated NSAIDs, this supplement was not reasonable. Therefore, the composition of the ORi-solution was modified as follows: 100 mM NaCl, 2.5 mM KCl, 1 mM MgCl2, 5 mM HEPES, pH 7.4, and according to former protocols ([Klapperstück et al., 2000]), a free ATP^4−concentration of 300 µM was adjusted.

O=C(O)c1ccccc1Nc1cccc(C(F)(F)F)c1 [Flufenamic acid, flufenamic acid]
IC50 (300 µM free ATP4-): ~900 µM
reversibility of the effect on hP2X7R-mediated current responses (slope of current before and after FFA application): potentially irreversible

O=C(O)Cc1ccccc1Nc1c(Cl)cccc1Cl [Diclofenac, diclofenac]
reduction of ATP4--induced current amplitude by 300 µM diclofenac (300 µM diclofenac, 300 µM free ATP4-): approximately 33%
IC50 (300 µM free ATP4-): > 300 µM
